# Measurements reported in article PMC5938390, “Tachyplesin Causes Membrane Instability That Kills Multidrug-Resistant Bacteria by Inhibiting the 3-Ketoacyl Carrier Protein Reductase FabG” (Frontiers in Microbiology, 2018).
# Positions of bridges follow the written chain, without caps; N, C: chain ends. Residues, ends and D or L forms follow the SMILES beside them.
# How the values were obtained:
# [1] = tested on: P. aeruginosa 1409; assay: MIC against MDR clinical isolate; type: cell-based, Pseudomonas aeruginosa; settings: P. aeruginosa 1409
# [2] = tested on: P. aeruginosa strain 1409; assay: Membrane rupture by propidium iodide staining; type: cell-based, Pseudomonas aeruginosa; settings: LB medium, 25°C, 1 h, then PI 10 μg/ml 30 min
# Experimental: These studies were carried out as we previously reported with slight modifications and briefly introduced as follows ([Liu et al., 2017]). […] Cytotoxicity in different cell lines was assessed using the Cell Proliferation Kit II (XTT) (Roche), and cytotoxicity in hemocytes was evaluated by the increase in the absorbance at 540 nm after peptide incubation. Membrane rupture was indicated by the entrance of the DNA-binding fluorescent dye PI into MDR clinical isolates of P. aeruginosa strain 1409. Membrane translocation of N-terminal FITC-conjugated tachyplesin III (purity ≥ 95%, synthesized by GL Biochem Co., Ltd, Shanghai, China) into MDR clinical isolates of Acinetobacter baumannii strain 1408 were detected by confocal laser-scanning microscopy.
# After centrifugation at 3000 g for 10 min, cells were resuspended in the same volume of PBS (phosphate-buffered saline, 8 g/L NaCl, 0.2 g/L KCl, 1.44 g/L Na2HPO4, 0.24 g/L KH2PO4, pH 7.4). Then, PI was added to a final concentration of 10 μg/ml. After 30 min of incubation at 25°C, the cells were washed three times with PBS and immediately imaged with a fluorescence microscope.
# [3] = tested on: A. baumannii 1408; assay: Transcriptome analysis (RNA sequencing, FPKM, DESeq); type: cell-based, Acinetobacter baumannii; settings: Ab; Ta 16 μg/ml, 30 min, 37°C
# Experimental: (§1) The Vitek 32 system (bioMerieux, France) and 16S rDNA sequencing were used to verify the clinical isolates A. baumannii 1408, P. aeruginosa 1409, Klebsiella pneumoniae 5 and E. coli 513, which were grown overnight in Luria-Bertani (LB) medium at 37°C with constant shaking at 220 rpm to reach the middle of their logarithmic growth phase. […] After the addition of 2 volumes of RNAprotect Bacteria Reagent (QIAGEN) to stabilized RNA, samples were vortexed for 5 s, incubated for 5 min at room temperature (15–25°C) and collected by centrifugation at 4°C for 5 min at 4000 g.
# (§2) RNA isolation and sequencing were performed by Novogene Bioinformatics Technology Co., Ltd. (Beijing, China) as previously described ([Liu B. et al., 2014]). Clean reads were mapped to the corresponding bacterial genomes using Bowtie 2 software ([Langmead and Salzberg, 2012]). Gene expression was calculated using the FPKM (expected number of fragments per kilobase of transcript sequence per millions of base pairs sequenced) method with HTSeq software (union model) ([Anders et al., 2015]). Differentially expressed genes were selected based on the DESeq R package with Padj values < 0.05 ([Anders and Huber, 2010]). KEGG pathway analysis was performed using KOBAS (2.0), and the corrected p value cut-off was set at 0.05 ([Li et al., 2015]).
# [4] = tested on: E. coli 513; assay: as above; type: cell-based, Escherichia coli; settings: Ec; Ta 16 μg/ml, 30 min, 37°C
# Experimental: as §1, §2
# [5] = target: T1, FabG from S. aureus (Staphylococcus aureus, UniProt P0A0H9); assay: FabG enzyme activity inhibition assay (NADPH consumption, A340); type: biochemical; settings: higher concentrations (7.5 and 15 μM) of peptide, 6 μM FabG, 5 min, room temperature
# T1 construct: His tag (C); made in house; host or cells: E. coli BL21 DE3 (vector pET28a)
# T1 sequence (P0A0H9 1-246): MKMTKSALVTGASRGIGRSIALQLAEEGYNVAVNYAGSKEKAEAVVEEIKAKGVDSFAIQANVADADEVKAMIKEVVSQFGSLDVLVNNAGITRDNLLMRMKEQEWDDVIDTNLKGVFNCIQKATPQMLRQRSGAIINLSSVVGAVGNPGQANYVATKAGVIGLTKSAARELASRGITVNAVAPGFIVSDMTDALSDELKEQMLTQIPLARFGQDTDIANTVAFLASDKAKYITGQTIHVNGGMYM
# Experimental: A 96-well plate with a final total volume of 200 μl per reaction was used for the FabG inhibition assay. Briefly, tachyplesin III (15, 7.5, and 3.75 μM) was incubated with 1.5 μM FabG from E. coli or 6 μM FabG from S. aureus at room temperature for 5 min, before the addition of 300 μM nicotinamide adenine dinucleotide phosphate (NADPH, Sigma) and then 150 μM acetoacetyl-CoA (Sigma) to initiate the reaction. The decrease in absorbance at 340 nm was recorded over 5 min to reflect the consumption of NADPH.
# FIGURE 7 Tachyplesin III binding with FabG inhibits its enzyme activities in vitro, probably by blocking the active site. Binding interactions between tachyplesin III and FabG from E. coli (A) or from S. aureus (E) were analyzed by surface plasmon resonance (SPR) with a Biocore 3000 (Biocore, Piscataway, NJ, United States). Black line: 1.25 μg/mL FabG; green line: 2.5 μg/mL FabG; purple line: 5 μg/mL FabG; and red line: 10 μg/mL FabG. […] Tachyplesin was processed with Chemdraw 11.0 according to the structure of tachyplesin I (PDB code 2RTV) and then docked to the active site of FabG from E. coli (PDB code 1Q7B) or S. aureus (PDB code 3SJ7) with AutoDock4 using the default settings. […] Statistical significance was analyzed by one-way ANOVA followed by the Newman–Keuls multiple-comparisons test, ^∗∗p < 0.01, ^∗p < 0.05.
structure (smiles),measurement,setting,value
"CC[C@H](C)[C@@H]1NC(=O)CNC(=O)[C@H](CCCNC(=N)N)NC(=O)[C@H](Cc2ccc(O)cc2)NC(=O)[C@@H]2CSSC[C@H](NC1=O)C(=O)N[C@@H](Cc1ccc(O)cc1)C(=O)N[C@@H](CCCNC(=N)N)C(=O)N[C@@H](CCCCN)C(=O)N[C@H](C(=O)N[C@@H](CCCNC(=N)N)C(N)=O)CSSC[C@H](NC(=O)[C@H](Cc1c[nH]c3ccccc13)NC(=O)[C@@H](N)CCCCN)C(=O)N[C@@H](Cc1ccccc1)C(=O)N[C@@H](CCCNC(=N)N)C(=O)N[C@@H](C(C)C)C(=O)N2 [tachyplesin III] (H-KWCFRVCYRGICYRKCR-NH2; disulfide 3-16, 7-12 (inferred); N-terminus and C-terminus assumed)",16 μg/ml tachyplesin III expressed as multiple of MIC,[1],2 × MIC
same,membrane integrity (PI fluorescence),[2]; 1/4× MIC,slight membrane breakage in a small proportion of the treated bacteria
same,membrane integrity (PI fluorescence),[2]; 4× MIC (high concentration),complete membrane breakage of nearly all of the treated bacteria
same,"Fold change after Ta treatment, gene A1S_2061 (3-ketoacyl-acyl carrier protein reductase)",[3],2.89
same,"Fold change after Ta treatment, gene b1093 (3-ketoacyl-acyl carrier protein reductase)",[4],1.11
same,"Fold change after Ta treatment, gene b3846 (3-hydroxyacyl-CoA dehydrogenase)",[4],2.3
same,FabG activity,[5],almost completely blocked
